Source: patent publication US9962350B2, “Agent for improving normal development rate of fertilized eggs” (SBI Pharmaceuticals Co., Ltd., priority 2014, dated 2018)

Tests used:
[1] = tested on: fertilized eggs obtained by the mating between female mice of the BDF2 lineage and male mice of the BDF1 lineage; assay: In vitro culture of natural mating-derived fertilized eggs (BDF2 females x BDF1 males) with ALA; embryo development; format: cell-based, mouse; conditions: 1 μM ALA
Method: Aside therefrom, a drop of 100 μL of M16 medium covered with mineral oil (manufactured by Sigma-Aldrich Corp.) and supplemented with ALA hydrochloride (manufactured by SBI Pharmaceuticals Co., Ltd.) at a final concentration of 0 μM (control), 0.1 μM, 0.5 μM, or 1 μM was prepared in a 35 mm Petri dish and left standing at 37° C. in a CO2 incubator. 29 or 30 of the cumulus cell-free fertilized eggs were transferred to the resulting drop and cultured in vitro at 37° C. in a CO2 incubator.
After a lapse of 24 hours, 48 hours, 72 hours, and 96 hours from the start of the in vitro culture (0 hours) in the drop, the developmental stage of each embryo was determined by observation under a stereoscopic microscope, and the number of embryos whose development progressed normally and change in development rate were calculated. Specifically, the number of 2-cell eggs 24 hours after the start of the culture, the number of 3-cell, 4-cell, and 8-cell eggs 48 hours thereafter, the number of morulae and blastocysts 72 hours thereafter, and the number of blastocysts 96 hours thereafter were counted as embryos whose development progressed normally at each stage. The development rate with the number of fertilized eggs (0 hours) defined as 100% is shown in Table 3 and the graph of FIG. 1. For the evaluation of the development rate, the percentage of the number of embryos whose development progressed normally 24 hours, 48 hours, 72 hours, and 96 hours after the start of the culture was calculated with the number of fertilized eggs (0 hours) defined as 100%, and used as a normal development rate. Because of the natural mating, the number of recovered fertilized eggs (0 hours) includes unfertilized eggs to some extent, and there is the possibility that the content of unfertilized eggs varies accidentally among fertilized eggs (0 hours) populations distributed to the respective condition groups even if the fertilized eggs (0 hours) populations have been recovered in the same experiment. The development rate calculated with the number of 2-cell embryos 24 hours postfertilization defined as 100% was calculated in order to eliminate the influence of the content of unfertilized eggs that varies accidentally among the respective condition groups. In short, in order to calculate the development rate on the basis of the number of eggs that reliably started embryo development, the development rate with the number of 2-cell embryos 24 hours postfertilization defined as 100% is shown in Table 4 and the graph of FIG. 2. The results of each test group were statistically analyzed by the square test (chi-square test) with a statistically significant difference of p<0.01 (**) and p<0.05 (*).
The study was conducted in the same way as in Example 1 except that: the female mice used to harvest fertilized eggs were female mice of the BDF2 lineage (5 to 24 weeks old, body weight: 16 to 25 g) obtained by the mating between females and males of the BDF1 lineage (F1 of C57BL/6 females×DBA/2 males); the male mice used for mating were male mice of the BDF1 lineage (F1 of C57BL/6 females×DBA/2 males) (46 to 52 weeks old, body weight: 30 to 45 g); and 1 μM ALA was studied. The results are shown in Tables 5 to 7 below and FIGS. 3 and 4.

[2] = tested on: C57BL/6J fertilized eggs (natural mating); assay: Low-temperature in vitro culture of natural mating-derived fertilized eggs in KSOM or mWM with ALA; embryo development; format: cell-based, mouse; conditions: 35° C.
Method: According to a routine method of controlled ovarian hyperstimulation, 5 U (units) of equine chorionic gonadotropin (serum gonadotropin) (ASKA Pharmaceutical Co., Ltd.) were intraperitoneally administered to each female mouse of the C57BL/6J lineage (4 weeks old to 6 weeks old). 45 to 48 hours later, 5 U (units) of gonadotropin (human chorionic gonadotropin) (ASKA Pharmaceutical Co., Ltd.) were intraperitoneally administered thereto. Immediately after the administration of gonadotropin, each female mouse was mated with each male mouse of the C57BL/6J lineage. In the next morning, the oviducts were recovered into physiological saline (0.9% (w/v) NaCl) from the female mice that were able to be confirmed to have a vaginal plug. The oviducts were perfused with KSOM or mWM (both were purchased from ARK Resource Co., Ltd., http://www.ark-resource.co.jp/seihin/cryopreservation-liquid/) containing hyaluronidase (approximately 300 μg/ml, Sigma-Aldrich Corp.). After removal of cumulus cells from the obtained fertilized eggs, the fertilized eggs were recovered. In order to remove hyaluronidase, the fertilized eggs were washed with each medium (KSOM or mWM) and maintained in KSOM or mWM (ARK Resource Co., Ltd.) in an incubator of 37° C. and 5% CO2 until the fertilized eggs were recovered from all of the female mice. These two media used are typical media for use in mouse embryo culture. KSOM is a typical low glucose-containing medium, whereas mWM is a high glucose-containing medium.
20 to 50 of the recovered fertilized eggs were transferred into a drop (covered with mineral oil (Sigma-Aldrich Corp.)) consisting of 100 μl of ALA-unsupplemented or ALA-supplemented (1 μM or 3 μM) medium (KSOM or mWM). Subsequently, the fertilized eggs were cultured under two culture conditions: a condition of 37° C. and 5% CO2 and a condition of 35° C. and 5% CO2. The number of 2-cell eggs was counted 24 hours after the fertilized egg harvest, and the number of blastocysts was counted 96 hours thereafter. The development rate was evaluated in the same way as in Example 1. The results about KSOM are shown in Tables 8 to 10 and FIGS. 5 and 6. The results about mWM are shown in Tables 11 to 13 and FIGS. 7 and 8.

[3] = 1 μM ALA, mWM, 96 hr (blastocysts)
[4] = 3 μM ALA, mWM, 96 hr (blastocysts)

SMILES: NCC(=O)CCC(=O)O [ALA, 5-aminolevulinic acid]
- The number of developed embryos ([1]; 24 hr): 41
- development rate with the number of fertilized eggs (0 hr) defined as 100% ([1]; 24 hr): 82%
- The number of developed embryos ([1]; 48 hr): 41
- development rate with the number of 2-cell embryos 24 hours postfertilization defined as 100% ([1]; 48 hr): 100%
- development rate with the number of fertilized eggs (0 hr) defined as 100% ([1]; 48 hr): 82%
- The number of developed embryos ([1]; 72 hr): 40
- development rate with the number of fertilized eggs (0 hr) defined as 100% ([1]; 72 hr): 80%
- The number of developed embryos ([1]; 96 hr): 40
- development rate with the number of fertilized eggs (0 hr) defined as 100% ([1]; 96 hr): 80%
- development rate as compared with the ALA-unsupplemented control (in words) ([1]; number of fertilized eggs (0 hours) defined as 100%): elevate the development rate
- The number of developed embryos in KSOM ([2]; 1 μM ALA, 24 hr): 39
- development rate with the number of fertilized eggs (0 hr) in KSOM defined as 100% ([2]; 1 μM ALA, 24 hr): 67%
- The number of developed embryos in KSOM ([2]; 1 μM ALA, 48 hr): 23
- development rate with the number of 2-cell embryos 24 hours postfertilization in KSOM defined as 100% ([2]; 1 μM ALA, 48 hr): 59%
- development rate with the number of fertilized eggs (0 hr) in KSOM defined as 100% ([2]; 1 μM ALA, 48 hr): 40%
- The number of developed embryos in KSOM ([2]; 1 μM ALA, 96 hr): 6
- development rate with the number of 2-cell embryos 24 hours postfertilization in KSOM defined as 100% ([2]; 1 μM ALA, 96 hr (blastocysts)): 15%
- development rate with the number of fertilized eggs (0 hr) in KSOM defined as 100% ([2]; 1 μM ALA, 96 hr (blastocysts)): 10%
- The number of developed embryos in mWM ([2]; 1 μM ALA, mWM, 24 hr): 59
- development rate with the number of fertilized eggs (0 hr) in mWM defined as 100% ([2]; 1 μM ALA, mWM, 24 hr): 50%
- The number of developed embryos in mWM ([2]; 1 μM ALA, mWM, 48 hr): 48
- development rate with the number of 2-cell embryos 24 hours postfertilization in mWM defined as 100% ([2]; 1 μM ALA, mWM, 48 hr): 81%
- development rate with the number of fertilized eggs (0 hr) in mWM defined as 100% ([2]; 1 μM ALA, mWM, 48 hr): 39%
- elevation of development rate to blastocysts vs control (in words) ([2]; 1 μM ALA, mWM, 96 hours (Tables 12 and 13)): no significant elevation
- The number of developed embryos in mWM ([2]; 1 μM ALA, mWM, 96 hr): 27
- development rate with the number of 2-cell embryos 24 hours postfertilization in mWM defined as 100% [2, 3]: 46%
- development rate with the number of fertilized eggs (0 hr) in mWM defined as 100% [2, 3]: 22%
- The number of developed embryos in mWM ([2]; 3 μM ALA, mWM, 24 hr): 62
- development rate with the number of fertilized eggs (0 hr) in mWM defined as 100% ([2]; 3 μM ALA, mWM, 24 hr): 50%
- The number of developed embryos in mWM ([2]; 3 μM ALA, mWM, 48 hr): 62
- development rate with the number of 2-cell embryos 24 hours postfertilization in mWM defined as 100% ([2]; 3 μM ALA, mWM, 48 hr): 100%
- development rate with the number of fertilized eggs (0 hr) in mWM defined as 100% ([2]; 3 μM ALA, mWM, 48 hr): 50%
- The number of developed embryos in mWM ([2]; 3 μM ALA, mWM, 96 hr): 40
- development rate with the number of 2-cell embryos 24 hours postfertilization in mWM defined as 100% [2, 4]: 65%
- development rate with the number of fertilized eggs (0 hr) in mWM defined as 100% [2, 4]: 32%
